For series [1], the system named is Staphylococcus aureus ATCC25923. As to the kind of experiment: Antimicrobial MIC, agar dilution.
For series [2], the system named is carrageenan induced paw edema. As to the kind of experiment: Anti-inflammatory activity: acute carrageenan induced paw edema in rats. In kind it is in vivo, Wister rats. To be noted: at 4 h effect; 10 mg kg^−1 indomethacin mol equivalent. A digest of the protocol: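 Wistar rats (120–150 g, n=6/group) received subplantar 1% carrageenan in the right hind paw, and DMSO-vehicle animals served as controls. Results are given as % inhibition of edema thickness versus control.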

The next series relates to gastric mucosa. The experiment in a line: Ulcerogenic liability (ulcer index). The class given is in vivo, albino mice. The settings on record: orally, three successive days, 10 mg/kg indomethacin mol equivalent; for Number of animals with ulcer: 6 animals per group; for Ulcer index: sum of the three values. Put shortly:
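Albino mice were fasted 18 h before dosing, and controls got saline with a few drops of Tween 80. Gastric mucosa was checked under a 10× lens for lesions and erosions. The ulcer index combines percentage incidence divided by 10, mean ulcers per stomach and mean severity.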

Series [3] has as its system A-549 (lung) carcinoma cell line. As to the kind of experiment: Anti-tumor properties, MTT. In kind it is cell-based. The settings on record: Homo sapiens, A549.
Series [4] relates to PC3 (prostate) carcinoma cell line. The experiment in a line: Anti-tumor properties, MTT. In kind it is cell-based. The settings on record: Homo sapiens.
In another series the test system is MCF-7 cells. The experiment in a line: Effect on doxorubicin induced cytotoxicity (MTT). Put shortly:
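MCF-7 cells were exposed for 48 hr to 100 μM curcumin derivative alone or combined with 10 μM doxorubicin. Controls got medium, DMSO vehicle, or vehicle+doxorubicin. Percent viable cells was read by MTT assay.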

Setting [5] is: ATCC25923, 18 h, read-out: Minimum inhibitory concentration (MIC).
[6] abbreviates: ATCC25923, read-out: Minimum inhibitory concentration (MIC).

The values below come from patent US10660967B2, “Curcumin conjugates and methods of use thereof” (priority 2016, dated 2020).

Read-outs that look alike come from different tables or passages of the source.

For `COc1cc(/C=C/C(=O)CC(=O)/C=C/c2ccc(OC(=O)[C@H](N)CCSC)c(OC)c2)ccc1OC(=O)[C@H](N)CCSC.Cl.Cl` [HCl-D-Met-Cur, (2R,2′R)-1,1′-((((1E,6E)-3,5-dioxohepta-1,6-diene-1,7-diyl)bis(2-methoxy-4,1-phenylene))bis(oxy))bis(4-(methylthio)-1-oxobutan-2-aminium) chloride], in series [1] (setting [5]), the MIC turned out to be 0.125 µg/mL. Further, the MIC in series [1] (setting [6]) is 0.178 µM. For the same compound, the “Potency (% inhibition of edema relative to that of indomethacin reference standard)” value in series [2] is 113. In addition, in the series on gastric mucosa, the “% Incidence of ulcer divided by 10” value was found to be 0, the “Average of ulcer number” value is 0, the “Average severity of ulcer” value came to 0 and the “Number of animals with ulcer” value is 0/6. Besides, the Ulcer index with gastric mucosa is 0. Further, in series [3], the IC50 is 20 µM. Moreover, half-maximal inhibition in series [4] (IC50) required 41.5 µM.
`COc1cc(/C=C/C(=O)CC(=O)/C=C/c2ccc(OC(=O)C(C)NC(=O)OCc3ccccc3)c(OC)c2)ccc1OC(=O)C(C)NC(=O)OCc1ccccc1` (racemic) [Cbz-DL-Ala-Cur, ((1E,6E)-3,5-dioxohepta-1,6-diene-1,7-diyl)bis(2-methoxy-4,1-phenylene) bis(2-(((benzyloxy)carbonyl)amino)propanoate)]: the MIC in series [1] (setting [5]) turned out to be 0.5 µg/mL. The MIC in series [1] (setting [6]) came out at 0.642 µM. Besides, the “Potency (% inhibition of edema relative to that of indomethacin reference standard)” value in series [2] was found to be 115. Moreover, in the series with gastric mucosa, the “% Incidence of ulcer divided by 10” value was 3.33, the “Average of ulcer number” value is given as 0.67, the “Average severity of ulcer” value is listed as 0.67 and the “Number of animals with ulcer” value was 2/6. The Ulcer index in the series with gastric mucosa is reported as 4.67. In addition, in the series on MCF-7 cells (10 μM DOX in combination with 100 μM curcumin derivative, 48 hr), the “Percentage of viable cells MCF-7 (average ± SD)” value is on record as 45.70 ± 2.23. Also, in the series on MCF-7 cells (Homo sapiens, MCF7, 48 h, read-out: Percentage of viable cells MCF-7 (average ± SD)), the viability at 100 µM came out at 98.8 ± 4.55%.
